Read-outs that look alike come from different tables or passages of the source.
Tests used:
[1] = system: human estrogen receptor ligand-binding domain (hER-LBD); experiment: intramolecular protein folding sensor (split TK fragments flanking ER-LBD), TK enzyme uptake in 293T cells; type: cell-based
Description: FIG. 2b illustrates a schematic diagram of the intramolecular folding sensor construct with the split TK fragments on either side of the estrogen receptor ligand binding domain (ER-LBD), and each construct was made by cloning into a pcDNA3.1 (+) plasmid backbone, under control of a CMV promoter. […] The error bar is the standard error of the mean for three samples.
All experiments were conducted with comparison to a positive control derived from the activity of intact TK, and a mock transfection acting as a negative control.

[2] = system: 293T cells stably expressing nTK(V119C)-FRB plus FKBP12-cTK; experiment: microPET imaging with [18F]-FHBG of subcutaneous 293T xenografts in living mice; type: in vivo
From the text: The signal from each implant was quantified directly from the microPET images to determine the % ID/g for the FHBG probe. […] The animals were repeatedly imaged on day 1 (before rapamycin), day 2 (one dose post rapamycin) and day 5 (3 doses post rapamycin) of this imaging protocol, i.e. after 1 week of initial xenograft growth. […] In another group of 4 mice, xenografts expressing nTK(V119C)-FRB plus FKBP12-cTK were compared with control implants stably expressing nTK plus cTK only (also in a single vector).
All animal handling and care was performed in accordance with Stanford University Animal Research Committee guidelines. […] The cells were allowed to grow as tumors for 7 days (to ˜0.3-0.4 cm in diameter). On day 8 mice were tail vein injected with 200 μCi of [^18F]-FHBG after undergoing anesthesia with 2% isoflurane in oxygen at 2 L/min. Three hours later, mice were microPET imaged in a spread prone position in a FOCUS microPET scanner (Concorde Microsystems, Knoxville, Tenn.). […] Immediately after imaging the animals were intraperitoneally injected with 50 μg of rapamycin; 24 h later all the animals were re-subjected to microPET imaging as mentioned above. The animals were further injected with intraperitoneal 50 μg rapamycin for two more days at 24 h intervals and subjected to repeat microPET imaging. In a separate cohort of 4 control mice, the above temporal imaging studies were performed in an identical fashion except that no rapamycin was administered. […] This % ID/g is a measure of the amount of tracer accumulated in a given tissue site normalized to the injected amount and to the mass of the tissue examined. […] For statistical analysis, the 2-tailed Student t-test was used. Differences were considered significant at P<0.05.

FKBP12 = FKBP12 (Homo sapiens, UniProt P62942); conditions: stable 293T cells, with 40 nM rapamycin, 36 h
FM (F36M) mutant FKBP12 = FM (F36M) mutant FKBP12 (Homo sapiens, UniProt P62942, F37M)
From the text: (§1) Twenty-four hours later we added FK506 to these cells and, using an in vitro [8-^3H]Penciclovir cell uptake assay, measured either the time- or dose-dependent changes in homodimer dissociation and consequent diminished TK complementation.
as §1

cells = conditions: 40 nM of rapamycin per well; cited from earlier work
FKBP12-cTK = FKBP12-cTK (human; herpes simplex virus type 1, UniProt P62942 1-108); experiment: cell-based or functional assay
HSV1-sr39TK = HSV1-sr39TK (Human herpesvirus 1, UniProt Q9QNF7, A168F/F161L/I160F/L159I/L169M); experiment: self-complementation of split TK fragments without attached proteins, TK enzyme uptake in 293T cells; type: cell-based, herpes simplex virus type 1
From the text: To confirm or refute this finding we performed a separate PCA study using another pair of known interacting proteins, after replacing FRB and FKBP12 with Id and MyoD respectively (FIG. 2a, and FIG. 12). […] We tested the interaction of Id and MyoD upon transient co-expression of the fusion proteins nTK-Id and MyoD-cTK in 293T cells, followed by an in vitro TK enzyme cellular uptake assay to detect dimerization-assisted complementation of the TK fragments. Again, this same orientation of chimeras using Id and MyoD was used previously in PCAs with split Firefly luciferase and Renilla luciferase. We compared this with complementation obtained using the previous chimeras containing FRB and FKBP12, before and after addition of rapamycin. As negative controls we also assayed for TK activity upon single- and co-expression of nTK and cTK fragments without any attached proteins to check whether any measured TK activity might originate in either the N-terminal or C-terminal fragments of TK alone, or perhaps by their spontaneous self-complementation even without attached proteins. The results, shown in FIG. 12, confirmed the findings described above using the FRB/FKBP12/rapamycin system (FIGS. 9, 10, 12).

[3] = 293T cells, 24 h treatment, P<0.05

Sequence of FKBP12 (P62942 whole entry, added parts left off): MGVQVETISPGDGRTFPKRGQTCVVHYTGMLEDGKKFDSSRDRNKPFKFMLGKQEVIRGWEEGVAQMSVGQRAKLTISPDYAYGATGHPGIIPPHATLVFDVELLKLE
Sequence of FM (F36M) mutant FKBP12 (P62942 whole entry F37M): as the sequence (P62942 whole entry, added parts left off) above, with F37M counted along it

Molecule: 4-hydroxytamoxifen [4-OHT]
- level of intramolecular-folding-assisted complementation versus carrier control-treated cells [1]: significantly higher

Molecule: Nc1nc2c(ncn2CCC(CO)C[18F])c(=O)[nH]1 (stereo not shown) [FHBG, 9-(4-[^18F]-fluoro-3-hydroxymethylbutyl)-guanine]
- probe % ID/g in shoulder tumors ([2]; animals imaged in the prone position): 1.02 % ID/g
- probe % ID/g in shoulder tumors ([2]; animals imaged in the supine position): 0.89 % ID/g
- FHBG accumulation in control tumors ([2]; control implants stably expressing nTK plus cTK only, fifth day, with rapamycin): minimal
- mean % ID/g for FHBG accumulation, background ([2]; mock transfected cells): 0.28±0.10 % ID/g
- mean % ID/g for FHBG accumulation ([2]; tumor of cells transfected with nTK(V119C)-FRB plus FKBP12-cTK, after 5 days of daily rapamycin): 4.37±1.74 % ID/g

Molecule: Cc1c(-c2ccc(O)cc2)nn(-c2ccc(O)cc2)c1-c1ccc(OCCN2CCCCC2)cc1 [MPP, methyl piperidinylethoxy pyrazole]
- level of intramolecular-folding-assisted complementation versus carrier control-treated cells [1, 3]: significantly higher

Molecule: CCCc1c(-c2ccc(O)cc2)nn(-c2ccc(O)cc2)c1-c1ccc(O)cc1 [PPT, 1,3,5-tris(4-hydroxyphenyl)-4-propyl-1H-pyrazole]
- level of intramolecular-folding-assisted complementation versus carrier control-treated cells [1, 3]: significantly higher

Molecule: CC[C@@H]1/C=C(\C)C[C@H](C)C[C@H](OC)[C@H]2O[C@@](O)(C(=O)C(=O)N3CCCC[C@H]3C(=O)O[C@H](/C(C)=C/[C@@H]3CC[C@@H](O)[C@H](OC)C3)[C@H](C)[C@@H](O)CC1=O)[C@H](C)C[C@@H]2OC [ascomycin]
- effect of increasing concentration on TK complementation (FKBP12): reduction in TK complementation
- smallest concentration required to initiate the competitive inhibition of rapamycin (FKBP12; 0 to 16 μM): 0.5 µM
- dissociation of complexes (fraction) (FM (F36M) mutant FKBP12; Five μM FK506, within 30 min): about two-thirds
- change of TK activity with increasing doses (FM (F36M) mutant FKBP12; up to 5 μM, after 24 hr of exposure): incremental reduction of TK activity

Molecule: CO[C@H]1C[C@@H]2CC[C@@H](C)[C@@](O)(O2)C(=O)C(=O)N2CCCC[C@H]2C(=O)O[C@H]([C@H](C)C[C@@H]2CC[C@@H](O)[C@H](OC)C2)CC(=O)[C@H](C)/C=C(\C)[C@@H](O)[C@@H](OC)C(=O)[C@H](C)C[C@H](C)/C=C/C=C/C=C/1C [rapamycin]
- toxicity to cells (cells): non-toxic

B1: nTK-FRB (other)
chain: MASYPCHQHASAFDQAARSRGHSNRRTALRPRRQQEATEVRLEQKMPTLLRVYIDGPHGMGKTTTTQLLVALGSRDDIVYVPEPMTYWRVLGASETIANIYTTQHRLDQGEISAGDAAVVMTSAQITMGMPYAVTDAVLAPHIGGEAGSSHAPPPALTLIFDRHPIAALLCYPAARYLMGSMTPQAVLAFVALIPPTLPGTNIVLGALPEDRHIDRLAKRQRPGERLDLAMLAAIRRVYGLLANTVRYLQCGGSWREDWGQLSGTGGGGSILWHEMWHEGLEEASRLYFGERNVKGMFEVLEPLHAMMERGPQTLKETSFNQAYGRDLMEAQEWCRKYMKSGNVKDLTQAWDLYYHVFRRISK
- complemented TK activity in the absence of rapamycin, against mock transfection, 293T cells (FKBP12-cTK): 2.3 fold above mock transfection levels
- relative gain in complemented TK activity after rapamycin administration, 293T cells (FKBP12-cTK): ~3 fold induction
- split TK complementation in SKBr3 human breast cancer cells, with rapamycin (FKBP12-cTK): ~3 fold rise
- split TK complementation in SKOV3 human ovarian cancer cells, with rapamycin (FKBP12-cTK): ~3 fold rise

B2: nTK: N-terminal TK fragment comprising the amino acids Met-1 to Thr-265 (protein)
chain: MASYPCHQHASAFDQAARSRGHSNRRTALRPRRQQEATEVRLEQKMPTLLRVYIDGPHGMGKTTTTQLLVALGSRDDIVYVPEPMTYWRVLGASETIANIYTTQHRLDQGEISAGDAAVVMTSAQITMGMPYAVTDAVLAPHIGGEAGSSHAPPPALTLIFDRHPIAALLCYPAARYLMGSMTPQAVLAFVALIPPTLPGTNIVLGALPEDRHIDRLAKRQRPGERLDLAMLAAIRRVYGLLANTVRYLQCGGSWREDWGQLSGT
- TK activity upon single- or co-expression of fragments without attached proteins (HSV1-sr39TK): no activity

B3: cTK: C-terminal TK fragment comprising the amino acids Ala-266 to Asn-376 (protein)
chain: AVTPQGAEPQSNAGPRPHIGETLFTLFRAPELLAPNGDLYNVFAWALDVLAKRLRPMHVFILDYDQSPAGCRDALLQLTSGMVQTHVTTPGSIPTICDLARTFAREMGEAH
- TK activity upon single- or co-expression of fragments without attached proteins (HSV1-sr39TK): no activity
